≈ marks a conversion by molar mass, not a printed value. Calls of active or inactive are those of the source. The calls are words filed in the database; no cut-off is given here.
How the values were obtained:
Raoultella planticola [1] = experiment: Antimicrobial activity against Klebsiella planticola MTCC 530 after 24 hrs by well diffusion method; type: functional; settings: MTCC 530, 24 h
Pseudomonas aeruginosa [2] = experiment: Antimicrobial activity against Pseudomonas aeruginosa MTCC 2453 after 24 hrs by well diffusion method; type: functional; settings: MTCC 2453, 24 h
Escherichia coli [3] = experiment: Antimicrobial activity against Escherichia coli MTCC 739 after 24 hrs by well diffusion method; type: functional; settings: MTCC 739, 24 h
Bacillus subtilis [4] = experiment: Antimicrobial activity against Bacillus subtilis MTCC 121 after 24 hrs by well diffusion method; type: functional; settings: MTCC 121, 24 h
Staphylococcus aureus [5] = experiment: Antimicrobial activity against Staphylococcus aureus MLS-16 MTCC 2940 after 24 hrs by well diffusion method; type: functional; settings: MLS-16 MTCC 2940, 24 h
Micrococcus luteus [6] = experiment: Antimicrobial activity against Micrococcus luteus MTCC 2470 after 24 hrs by well diffusion method; type: functional; settings: MTCC 2470, 24 h
Staphylococcus aureus [7] = experiment: Antimicrobial activity against Staphylococcus aureus MTCC 96 after 24 hrs by well diffusion method; type: functional; settings: MTCC 96, 24 h
Vero = experiment: Cytotoxicity against african green monkey Vero cells; type: cell-based; settings: Chlorocebus sabaeus
MRC5 = experiment: Cytotoxicity against human MRC5 cells; type: cell-based
[8] = tested on: Mycobacterium tuberculosis; experiment: Antimicrobial activity against Mycobacterium tuberculosis H37Rv after 3 weeks by broth dilution method; type: functional; settings: for MIC: 504 h
Raoultella planticola [9] = experiment: Antibiofilm activity against Klebsiella planticola MTCC 530 after 24 hrs by crystal violet assay; type: functional, organism-based; settings: MTCC 530, 24 h
Staphylococcus aureus [10] = experiment: Antibiofilm activity against Staphylococcus aureus MLS-16 MTCC 2940 after 24 hrs by crystal violet assay; type: functional, organism-based; settings: MLS-16 MTCC 2940, 24 h
Staphylococcus aureus [11] = experiment: Antibiofilm activity against Staphylococcus aureus MTCC 96 after 24 hrs by crystal violet assay; type: functional, organism-based; settings: for IC50: MTCC 96, 24 h
Candida albicans = experiment: Antimicrobial activity against Candida albicans MTCC 3017 at 150 ug/ml after 24 hrs by well diffusion method; type: functional, organism-based
Raoultella planticola [12] = experiment: Bactericidal activity against Klebsiella planticola MTCC 530 after 24 hrs; type: functional; settings: MTCC 530, 24 h
Pseudomonas aeruginosa [13] = experiment: Bactericidal activity against Pseudomonas aeruginosa MTCC 2453 after 24 hrs; type: functional; settings: MTCC 2453, 24 h
Escherichia coli [14] = experiment: Bactericidal activity against Escherichia coli MTCC 739 after 24 hrs; type: functional; settings: MTCC 739, 24 h
Bacillus subtilis [15] = experiment: Bactericidal activity against Bacillus subtilis MTCC 121 after 24 hrs; type: functional; settings: MTCC 121, 24 h
Staphylococcus aureus [16] = experiment: Bactericidal activity against Staphylococcus aureus MLS-16 MTCC 2940 after 24 hrs; type: functional; settings: MLS-16 MTCC 2940, 24 h
Staphylococcus aureus [17] = experiment: Bactericidal activity against Staphylococcus aureus MTCC 96 after 24 hrs; type: functional; settings: MTCC 96, 24 h
Micrococcus luteus [18] = experiment: Bactericidal activity against Micrococcus luteus MTCC 2470 after 24 hrs; type: functional; settings: MTCC 2470, 24 h
Staphylococcus aureus [19] = experiment: Antimicrobial activity against methicillin-resistant Staphylococcus aureus after 24 hrs by microdilution method; type: functional
[20] = tested on: Mycobacterium tuberculosis; experiment: Ratio of linezolid MIC to compound MIC for Mycobacterium tuberculosis H37Rv after 3 weeks by broth dilution method; type: functional
Enterococcus faecalis = experiment: Antimicrobial activity against vancomycin -resistant Enterococcus faecalis after 24 hrs by microdilution method; type: functional

Structure (SMILES)	MIC (Raoultella planticola [1])	MIC (Pseudomonas aeruginosa [2])	MIC (Escherichia coli [3])	MIC (Bacillus subtilis [4])	MIC (Staphylococcus aureus [5])	MIC (Micrococcus luteus [6])	MIC (Staphylococcus aureus [7])	IC50 (Vero)	IC50 (MRC5)	IC50 (Raoultella planticola [9])	IC50 (Staphylococcus aureus [10])	IC50 (Staphylococcus aureus [11])	Activity (Candida albicans)	MBC (Raoultella planticola [12])	MBC (Pseudomonas aeruginosa [13])	MBC (Escherichia coli [14])	MBC (Bacillus subtilis [15])	MBC (Staphylococcus aureus [16])	MBC (Staphylococcus aureus [17])	MBC (Micrococcus luteus [18])	also measured
COc1ccc(Cn2cc(CNC(=O)c3ccc([N+](=O)[O-])o3)nn2)cc1O	18.8 µg/mL (≈ 50.2 µM)	> 150 µg/mL	37.5 µg/mL (≈ 100 µM)	9.37 µg/mL (≈ 25.1 µM)	9.37 µg/mL (≈ 25.1 µM)	9.37 µg/mL (≈ 25.1 µM)	37.5 µg/mL (≈ 100 µM)	174 µM	189 µM	11.3 µg/mL (≈ 30.3 µM)	5.1 µg/mL (≈ 13.7 µM)	10.3 µg/mL (≈ 27.6 µM)	inactive	18.8 µg/mL (≈ 50.2 µM)	> 150 µg/mL	75 µg/mL (≈ 201 µM)	18.8 µg/mL (≈ 50.2 µM)	18.8 µg/mL (≈ 50.2 µM)	75 µg/mL (≈ 201 µM)	9.37 µg/mL (≈ 25.1 µM)	Activity [8]: inactive
CC(=O)NC[C@H]1CN(c2ccc(N3CCOCC3)c(F)c2)C(=O)O1 [LINEZOLID]	–	–	–	–	–	–	–	–	–	–	–	–	–	–	–	–	–	–	–	–	MIC [8]: 1 µg/mL (≈ 2.96 µM); MIC (Staphylococcus aureus [19]): 8 µg/mL (≈ 23.7 µM)
O=C(NCc1cn(Cc2ccc(F)c(Cl)c2)nn1)c1ccc([N+](=O)[O-])o1	18.8 µg/mL (≈ 49.4 µM)	> 150 µg/mL	18.8 µg/mL (≈ 49.4 µM)	1.17 µg/mL (≈ 3.08 µM)	2.34 µg/mL (≈ 6.16 µM)	2.34 µg/mL (≈ 6.16 µM)	18.8 µg/mL (≈ 49.4 µM)	344 µM	254 µM	12.2 µg/mL (≈ 32.1 µM)	1.1 µg/mL (≈ 2.9 µM)	13.6 µg/mL (≈ 35.8 µM)	inactive	37.5 µg/mL (≈ 98.8 µM)	> 150 µg/mL	18.8 µg/mL (≈ 49.4 µM)	1.17 µg/mL (≈ 3.08 µM)	2.34 µg/mL (≈ 6.16 µM)	18.8 µg/mL (≈ 49.4 µM)	2.34 µg/mL (≈ 6.16 µM)	Ratio [20]: 4; MIC [8]: 0.25 µg/mL (≈ 0.658 µM); MIC (Staphylococcus aureus [19]): 8 µg/mL (≈ 21.1 µM); MIC (Enterococcus faecalis): > 64 µg/mL
O=C(NCc1cn(Cc2cccc([N+](=O)[O-])c2)nn1)c1ccc([N+](=O)[O-])o1	18.8 µg/mL (≈ 50.4 µM)	> 150 µg/mL	9.37 µg/mL (≈ 25.2 µM)	2.34 µg/mL (≈ 6.29 µM)	1.17 µg/mL (≈ 3.14 µM)	4.68 µg/mL (≈ 12.6 µM)	> 150 µg/mL	326 µM	199 µM	14.5 µg/mL (≈ 38.9 µM)	0.8 µg/mL (≈ 2.15 µM)	84.5 µg/mL (≈ 227 µM)	inactive	37.5 µg/mL (≈ 101 µM)	> 150 µg/mL	18.8 µg/mL (≈ 50.4 µM)	4.68 µg/mL (≈ 12.6 µM)	2.34 µg/mL (≈ 6.29 µM)	> 150 µg/mL	9.37 µg/mL (≈ 25.2 µM)	MIC [8]: 8 µg/mL (≈ 21.5 µM); MIC (Staphylococcus aureus [19]): 8 µg/mL (≈ 21.5 µM); MIC (Enterococcus faecalis): > 64 µg/mL
COc1ccc(Cn2cc(CNC(=O)c3ccc([N+](=O)[O-])o3)nn2)cc1F	18.8 µg/mL (≈ 50 µM)	> 150 µg/mL	> 150 µg/mL	2.34 µg/mL (≈ 6.23 µM)	4.68 µg/mL (≈ 12.5 µM)	4.68 µg/mL (≈ 12.5 µM)	> 150 µg/mL	312 µM	324 µM	9.8 µg/mL (≈ 26.1 µM)	3.4 µg/mL (≈ 9.06 µM)	–	inactive	18.8 µg/mL (≈ 50 µM)	> 150 µg/mL	> 150 µg/mL	4.68 µg/mL (≈ 12.5 µM)	9.37 µg/mL (≈ 25 µM)	> 150 µg/mL	9.37 µg/mL (≈ 25 µM)	Activity [8]: inactive; inhibition (Staphylococcus aureus [11]): inactive
COc1ccc(Cn2cc(CNC(=O)c3ccc([N+](=O)[O-])o3)nn2)cc1	37.5 µg/mL (≈ 105 µM)	> 150 µg/mL	75 µg/mL (≈ 210 µM)	2.34 µg/mL (≈ 6.55 µM)	9.37 µg/mL (≈ 26.2 µM)	2.34 µg/mL (≈ 6.55 µM)	37.5 µg/mL (≈ 105 µM)	274 µM	146 µM	24 µg/mL (≈ 67.2 µM)	6.1 µg/mL (≈ 17.1 µM)	12.6 µg/mL (≈ 35.3 µM)	inactive	37.5 µg/mL (≈ 105 µM)	> 150 µg/mL	75 µg/mL (≈ 210 µM)	4.68 µg/mL (≈ 13.1 µM)	9.37 µg/mL (≈ 26.2 µM)	75 µg/mL (≈ 210 µM)	2.34 µg/mL (≈ 6.55 µM)	Activity [8]: inactive
COc1cc(Cn2cc(CNC(=O)c3ccc([N+](=O)[O-])o3)nn2)ccc1O	75 µg/mL (≈ 201 µM)	> 150 µg/mL	37.5 µg/mL (≈ 100 µM)	4.68 µg/mL (≈ 12.5 µM)	2.34 µg/mL (≈ 6.27 µM)	1.17 µg/mL (≈ 3.13 µM)	18.8 µg/mL (≈ 50.2 µM)	224 µM	182 µM	42.5 µg/mL (≈ 114 µM)	1.7 µg/mL (≈ 4.55 µM)	10.8 µg/mL (≈ 28.9 µM)	inactive	75 µg/mL (≈ 201 µM)	> 150 µg/mL	75 µg/mL (≈ 201 µM)	9.37 µg/mL (≈ 25.1 µM)	4.68 µg/mL (≈ 12.5 µM)	18.8 µg/mL (≈ 50.2 µM)	2.34 µg/mL (≈ 6.27 µM)	MIC [8]: 8 µg/mL (≈ 21.4 µM); MIC (Staphylococcus aureus [19]): 16 µg/mL (≈ 42.9 µM); MIC (Enterococcus faecalis): > 64 µg/mL
